Legend:
[1] = target: T1, RSK2 (90 kDa ribosomal protein S6 kinase 2) (Homo sapiens, UniProt P51812); test: radiometric […]-ATP kinase assay with KKLNRTLSVA peptide, P81 filter; format: biochemical
T1 construct: gene RPS6KA3

[2] = target: T2, RSK1 (90 kDa ribosomal protein S6 kinase 1; MAPKAP-K1α) (Rattus norvegicus, UniProt Q63531); test: radiometric […]-ATP kinase assay with KKLNRTLSVA peptide, P81 filter; also […] inhibition at […] in kinase panel; format: biochemical
T2 construct: gene Rps6ka1
T2 sequence (Q63531 whole entry): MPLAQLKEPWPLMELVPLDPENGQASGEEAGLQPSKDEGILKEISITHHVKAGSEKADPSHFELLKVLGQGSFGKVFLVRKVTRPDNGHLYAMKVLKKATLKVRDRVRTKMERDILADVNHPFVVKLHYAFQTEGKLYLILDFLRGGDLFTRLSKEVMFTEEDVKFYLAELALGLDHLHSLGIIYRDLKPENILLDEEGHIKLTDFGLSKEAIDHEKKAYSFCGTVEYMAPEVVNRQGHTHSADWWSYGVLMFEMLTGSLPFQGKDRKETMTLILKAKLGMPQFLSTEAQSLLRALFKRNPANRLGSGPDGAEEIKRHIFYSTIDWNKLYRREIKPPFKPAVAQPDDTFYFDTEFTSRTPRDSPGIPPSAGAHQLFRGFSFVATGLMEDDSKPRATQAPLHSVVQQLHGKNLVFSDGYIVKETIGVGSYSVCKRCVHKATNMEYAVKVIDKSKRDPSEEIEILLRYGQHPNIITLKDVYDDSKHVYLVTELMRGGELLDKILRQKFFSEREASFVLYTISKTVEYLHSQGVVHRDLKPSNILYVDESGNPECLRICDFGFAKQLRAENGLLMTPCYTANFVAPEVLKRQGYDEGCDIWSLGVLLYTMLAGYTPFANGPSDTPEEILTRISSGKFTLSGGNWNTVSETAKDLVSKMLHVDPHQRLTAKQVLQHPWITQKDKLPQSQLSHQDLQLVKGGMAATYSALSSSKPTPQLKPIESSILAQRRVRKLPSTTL

T1 sequence (P51812 whole entry): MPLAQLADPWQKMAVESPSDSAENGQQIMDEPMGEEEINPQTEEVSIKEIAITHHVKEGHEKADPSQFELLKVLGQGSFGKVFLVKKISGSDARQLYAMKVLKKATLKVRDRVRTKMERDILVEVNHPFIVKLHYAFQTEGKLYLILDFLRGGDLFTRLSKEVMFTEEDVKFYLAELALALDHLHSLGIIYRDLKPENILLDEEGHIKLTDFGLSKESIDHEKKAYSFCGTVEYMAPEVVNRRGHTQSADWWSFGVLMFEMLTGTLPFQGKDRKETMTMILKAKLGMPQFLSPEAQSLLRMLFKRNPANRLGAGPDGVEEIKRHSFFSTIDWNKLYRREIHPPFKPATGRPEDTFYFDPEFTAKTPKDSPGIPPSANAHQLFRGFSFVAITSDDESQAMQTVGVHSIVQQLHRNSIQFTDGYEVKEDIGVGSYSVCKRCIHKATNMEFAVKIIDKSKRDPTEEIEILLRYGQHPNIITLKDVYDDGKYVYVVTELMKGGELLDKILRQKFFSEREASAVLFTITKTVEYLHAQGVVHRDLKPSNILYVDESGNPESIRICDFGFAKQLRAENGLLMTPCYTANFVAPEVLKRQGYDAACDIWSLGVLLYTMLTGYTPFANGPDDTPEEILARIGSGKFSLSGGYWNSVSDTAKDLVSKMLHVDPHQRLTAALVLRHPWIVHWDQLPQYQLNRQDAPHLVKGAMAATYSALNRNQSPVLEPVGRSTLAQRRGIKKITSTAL

## O[C@]12C=C(c3nccc4c3[nH]c3ccccc34)[C@@H]3CCN(CCCC/C=C\CC1)C[C@@]31C[C@@H]3/C=C\CCCCN3[C@H]12 [MZA, Manzamine A]
[1]
  IC50: 108 µM
[2]
  IC50: 15 µM

Source: PMC8467814, “RSK1 vs. RSK2 Inhibitory Activity of the Marine β-Carboline Alkaloid Manzamine A: A Biochemical, Cervical Cancer Protein Expression, and Computational Study” (Marine Drugs, 2021)
